Tested on: LP-1, a human multiple myeloma cell line (IgG fucosylation)
Assay: Fucosylation of LP-1-generated IgG, AOL dot blot
Assay type: cell-based
Details: for % of control fucosylated IgG value / inhibition of IgG fucosylation in human cells (decrease in AOL signal, dot blot) / dot blot results (% fucose signal of control): 100 μM; for % of control fucosylated IgG value / activity at 100 µM: 5 days, AOL dot blot, multiple samples separated by semicolon; for % of control fucosylated IgG value / inhibition of IgG fucosylation in human cells (decrease in AOL signal, dot blot) / activity at 100 µM: LP-1 cells; for dot blot results (% fucose signal of control): LP-1-generated IgG; for activity at 100 µM: Homo sapiens, LP-1, 120 h, read-out: % of control fucosylated IgG value
Procedure: To further evaluate the activities of different fucose analogs, 48 different fucose analogs and other four glycosylation inhibitors were tested for their ability to affect the fucosylation the LP-1-generated IgG. LP-1 cells (250,000 cells/mL, 3 mL per compound in 6-well plates) were incubated with 100 μM of each fucose analog for 5 days at 37° C. with a humidified atmosphere of 5% CO2 in IgG-depleted tissue culture media (90% RPMI with 10% IgG-depleted heat inactivated FBS). The IgG was isolated as described above using only 0.5 mL of MabSelect™ protein A resin slurry and one spin cup per sample with elution in 400 μL of IgG elution buffer into 25 μL of 9 M Tris buffer, pH 9. The eluates were concentrated to 10-20 μL per sample and 2 μL of each of the concentrated eluates were dotted onto a nitrocellulose membrane and stained with Ponceau S to estimate and adjust the sample loading for AOL staining. From this estimation of total protein in each sample, approximately 0.5 μg of each sample was dotted onto the membrane, air-dried, and stained with Ponceau S. An image of this stained membrane was captured using an Alpha Innotech FlourChem® Q system. The membrane was then blocked with 5% Bovine Serum Albumin (BSA) in Tris Buffered Saline (TBS) for 1 hr, washed with TBST (TBS with […]) 3 times and then incubated with 5 μg/ml biotinylated-AOL for 1 hr. The membrane was washed again with TBST 3 times, followed by Streptavidin-HRP incubation for 30 min and final washes with TBST 3 times.

Row | Molecule | % of control fucosylated IgG value | activity at 100 µM [%] | further results
1 | 5-carboxamido fucose tetraacetate [SGD-1995] | 79 % of control |  | 
2 | 5-epoxy fucose tetraacetate [SGD-2020] | 5 % of control |  | inhibition of IgG fucosylation in human cells (decrease in AOL signal, dot blot): potentially strong inhibitors; dot blot results (% fucose signal of control): 5 % fucose signal of control
3 | 6-alkyne-6-acetoxy fucose tetraacetate [SGD-2004] | 29 % of control |  | 
4 | O=C1O[C@H]([C@@H](O)CO)[C@@H](O)[C@@H]1O [SGD-1931, L-galactono-1,4-lactone] |  | 81 | 
5 | CO[C@@H]1O[C@@H](C)[C@@H](O)[C@@H](O)[C@@H]1O [SGD-1932, Methyl a-L-fucopyranoside] | 87 % of control |  | 
6 | C#CCNC[C@H](O)[C@@H](O)[C@@H](O)[C@H](O)C=O [SGD-1950, 6-propargylamino fucose] |  | 40 | 
7 | O[C@H]1[C@H](O)[C@@H](O)CN2CC[C@H](O)[C@H]12 [SGD-1960, castanospermine, reference compound] |  | 300 | 
8 | CC(=O)O[C@@H]([C@@H](C=O)OC(C)=O)[C@H](OC(C)=O)C(C)(C)OC(C)=O [SGD-1964, 5-methylketo fucose tetraacetate] |  | 5 | inhibition of IgG fucosylation in human cells (decrease in AOL signal, dot blot): potentially strong inhibitors; dot blot results (% fucose signal of control): 5 % fucose signal of control
9 | CC(=O)OC1O[C@@H](C(C)C)[C@@H](OC(C)=O)[C@@H](OC(C)=O)[C@@H]1OC(C)=O (stereo partly drawn) [SGD-1977, (3S,4R,5R,6S)-6-isopropyltetrahydro-2H-pyran-2,3,4,5-tetrayl tetraacetate] |  | 79 | 
10 | O=C[C@H](O)[C@@H](O)[C@@H](O)[C@H](O)CS [SGD-2025, 6-thio galactose pentaacetate] |  | 44 | 
11 | COC(=O)[C@@H]1OC(OC(C)=O)[C@@H](OC(C)=O)[C@H](OC(C)=O)[C@@H]1OC(C)=O (some centres unmarked) [SGD-2061, 6-carboxymethyl ester fucose tetraacetate] | 71 % of control |  | 
12 | CCC(=O)[C@H](OC(C)=O)[C@@H](OC(C)=O)[C@@H](OC(C)=O)[C@@H](C=O)OC(C)=O [SGD-2067, 6-keto-6-ethyl fucose tetraacetate] |  | 3 | inhibition of IgG fucosylation in human cells (decrease in AOL signal, dot blot): potentially strong inhibitors; dot blot results (% fucose signal of control): 3 % fucose signal of control
13 | CC(=O)OC(CCC#N)[C@@H](OC(C)=O)[C@@H](OC(C)=O)[C@@H](C=O)OC(C)=O (some centres unmarked) [SGD-2070, 5-(2-cyanoethyl)arabinose tetraacetate] |  | 51 | 
14 | CC(=O)OC[C@@H](OC(C)=O)[C@H](OC(C)=O)[C@H](OC(C)=O)[C@H](C=O)OC(C)=O [SGD-2074, D-galactose pentaacetate] |  | 118 | 
15 | CC(=O)OC1C=COC(C)C1OC(C)=O (centres unmarked) [SGD-2080, 1,2-dideoxy-1,2-dehydro fucose diacetate] | 159 % of control |  | 
16 | CC(=O)OC1COC(C)C(OC(C)=O)C1OC(C)=O (centres unmarked) [SGD-2081, 1-deoxy fucose triacetate] | 70 % of control |  | 
17 | C[C@H](O)[C@@H](O)[C@@H](O)[C@@H](O)C=O [SGD-2113, 6-deoxy-L-talose] |  | 93 | 
